Laboratory results taken from US20210007985A1, “LIPOSOMAL ANTI-INFECTIVE FORMULATIONS TO INHIBIT NON-TUBERCULOUS MYCOBACTERIA (NTM) MICROAGGREGATE FORMATION AND ESTABLISHMENT OF NTM BIOFILM” (ARADIGM CORPORATION, priority 2017, published 2021).
In brackets after ≈: the same amount, converted by molar mass.

Assays:
M. avium biofilm = conditions: incubation of M. avium with antibiotic; McNabe et al. 2012; cited from earlier work
M. avium microaggregates = experiment: Electron micrographs of M. avium microaggregates on epithelial cell monolayer (FIG. 1); format: cell-based; conditions: 300 μg/mL; treatment added at t=0 h; growth over 24 h
Text: FIG. 1 consists of FIGS. 1A, 1B, 1C, 1D and 1E.

M. avium = conditions: Inderlied et al, 1989; cited from earlier work
M. avium 109 = experiment: Activity against M. avium 109 in human macrophage (THP-1) model; format: cell-based; conditions: M. avium 109 in THP-1 macrophages; 20 μg/mL for 4 days
[1] = system: M. avium (MAC Strain 104); experiment: M. avium mouse lung infection model over 6 weeks; format: in vivo, mice; conditions: 1 mg/kg; 3 and 6 weeks
M. avium MAC 104 = experiment: Antimicrobial susceptibility (MIC, microdilution) of MAC 104 before and after treatment; format: cell-based; conditions: Mycobacterium avium, MAC104, read-out: MIC of M. avium to ciprofloxacin, before and after treatment
M. avium 101 = experiment: Activity against M. avium 101 in human macrophage (THP-1) model; format: cell-based

Q: Which “effect on M. avium biofilm formation” value (M. avium biofilm) does the source give for `[H]/N=C(/N)N[C@H]1[C@H](O)[C@@H](O)[C@H](O[C@@H]2O[C@@H](C)[C@](O)(C=O)[C@H]2O[C@@H]2O[C@@H](CO)[C@H](O)[C@@H](O)[C@@H]2NC)[C@@H](N/C(N)=N\[H])[C@@H]1O` [streptomycin] here?
A: an increase, not decrease, in the biofilm formation

Q: With TMP/SMX as the compound, how does the “effect on M. avium biofilm formation” value (M. avium biofilm) read?
A: no effect on biofilm

Q: With `O=C(O)c1cn(C2CC2)c2cc(N3CCNCC3)c(F)cc2c1=O` [Ciprofloxacin] as the compound, how does the “microaggregate formation in electron micrographs” value (M. avium microaggregates) read?
A: much less microaggregate formation than control

Q: What about the “minimum inhibitory concentration (MIC)” value (M. avium) of the same compound?
A: 5 µg/mL (≈ 15.1 µM)

Q: What about the “CFU Day 4” value (M. avium 109) of the same compound?
A: 1.1 ± 0.4 × 10^4 CFU

Q: And the “statistical effect on lung CFU” value [1]?
A: did not have a statistically significant effect

Q: What about the MIC (M. avium MAC 104) of the same compound?
A: 8 µg/mL

Q: And the “statistical effect on CFU in macrophages” value (M. avium 101; M. avium 101 and 109, 20 μg/ml, Day 4 vs Day 0)?
A: did not have a statistically significant effect

Q: What about the “CFU Day 0” value (M. avium 101; M. avium 101 in THP-1 macrophages, initial infecting load before treatment at 20 μg/mL) of the same compound?
A: 7 ± 0.2 × 10^4 CFU

Q: For `CC1(C)S[C@@H]2[C@H](NC(=O)[C@H](N)c3ccccc3)C(=O)N2[C@H]1C(=O)O` [ampicillin], which “effect on M. avium biofilm formation” value (M. avium biofilm) is on record?
A: no effect on biofilm
